This is an account of results in patent US20190282616A1, “MACROPHAGES REDIRECT PHAGOCYTOSIS BY NON-PROFESSIONAL PHAGOCYTES AND INFLUENCE INFLAMMATION” (University of Virginia Patent Foundation, priority 2016, published 2019).

One data set relates to IC-21 cells. Put plainly: Apoptotic thymocyte engulfment by IC-21 cells. Format: cell-based. Conditions: indicated concentrations of mouse IGF-1 or human insulin.
In data set [1] the test system is LR73 cells. Put plainly: In vitro engulfment assay: apoptotic thymocyte uptake by LR73 cells. Format: cell-based, hamster. Conditions: for apoptotic cell uptake by LR73 cells: human insulin or human IGF-II, at higher concentrations than IGF-1; for apoptotic cell uptake (engulfment) by LR73 cells: soluble mediator alone, IGF-I at concentrations reported in serum (100-600 ng/mL), other factors over a range of concentrations; for reversal of IGF-1 mediated engulfment suppression in LR73 cells: agent added in the presence of IGF-1; for basal phagocytosis of apoptotic cells with inhibitor alone: without IGF-1. The method, then: (§1) LR73, SVEC-40, BEAS-2B, and 16HBE14o-cells were seeded in a 24 well plate. Thymocytes were isolated from 4-6 week old mice and induced to undergo apoptosis with dexamethasone. Thymocytes or prepared microvesicles were then stained with either CypHer5E (GE Healthcare, PA15401) or TAMRA (Invitrogen, C-1171). LR73 and SVEC-40 cells were incubated with apoptotic thymocytes at a 1:10 phagocyte to target ratio, BEAS-2B at a 1:5 phagocyte to target ratio, and 16HBE14o—at a 1:20 phagocyte to target ratio for 2 hours. Mouse IGF-I (Sigma-Aldrich), human IGF-I (Sigma-Aldrich), human IGF-II (Sigma-Aldrich) were added to the phagocytes at the same time as addition of apoptotic targets. For IGFBP3 studies, IGFBP3 (Sigma-Aldrich) was added to media or supernatant from J774 cells for one hour to allow IGFBP3 to bind to any available IGF-I, then the mix is added to phagocytes along with apoptotic targets. For all pharmacological studies, phagocytes were pre-incubated with the compounds listed below for one hour prior to addition of apoptotic targets: cytochalasin D (Sigma-Aldrich, C8273, 1 μM), Latrunculin A (Tocris, 3973, 150 nM), CK-666 (Tocris, 3950, 25 μM-100 μM), OSI-906 (Selleckchem, S1091, 5 nM-40 nM), NVP-AEW541 (Selleckchem, S1034, 25 nM-100 nM), Rapamycin (Sigma-Aldrich, R0395, […]), MK-2206 2HCl (Selleckchem, S1078, 10 nM-1 U0126-EtOH (Selleckchem, S1102, […]), Wortmannin (Sigma-Aldrich, W1628, 50 nM-200 nM), Y27632 (Calbiochem, 688000, 3.75 μM-15 μM), or GSK269962 (Tocris, 4009, 80 nM-2 μM). […] Targets were then washed off three times with PBS, and the cells were dissociated from the plate with trypsin and the engulfment assessed by flow cytometry.

In data set [2] the test system is IGF-1R, Akt and Erk1/2 phosphorylation in LR73 cells. Put plainly: Immunoblotting of signaling in LR73 cells. Format: cell-based, hamster. The note with it: for early downstream signaling events (Erk1/2 phosphorylation): serum-starved LR73 cells, 100 ng/mL growth factor; for phosphorylation of IGF-1R and Erk: LR73 cells stimulated with IGF-1 and treated with inhibitor. The procedure: LR73, J774, or BEAS-2B cells were seeded in a 60 mm dish at a concentration of 5×10^5. […] Cells were lysed in RIPA buffer and used in Western blots. The blots were probed for phospho-Erk1/2 (Cell Signaling Technology, #4370), phospho-Akt (Cell Signaling Technology, #4060), phospho-IGF-1R (Cell Signaling, #3024), total Erk2 (Santa Cruz Biotechnology, #sc-154-G), total Akt (Cell Signaling Technology, #4691), total IGF-1R (Cell Signaling, #9750), and anti-B-actin-HRP (Sigma-Aldrich, #A3854) followed by chemiluminescence detection.

Data set [3] concerns LR73 cells. Conditions: for uptake of PtdSer containing liposomes by LR73 cells: liposomes of 150-200 nm, IGF-1 50 ng/mL, EGF or VEGF 100 ng/mL each; for effect on IGF-1 induced increase in liposome uptake / basal uptake of liposomes: LR73 cells; for effect on IGF-1 induced increase in liposome uptake: inhibitor plus IGF-1; for basal uptake of liposomes: inhibitor without IGF-1. The method, then:
as §1
Liposomes were prepared by dissolving the lipids (phosphatidylserine, dioleoyl phosphatidylcholine, cholesterol and the lipid DiD dye) in chloroform, evaporating chloroform under flow of argon gas in a glass vial, then subjecting the lipid layer to overnight lyophilization to remove traces of organic solvent. Then normal saline was added for hydration, and intense vortexing was preformed to prepare multilamellar vesicles (MIN). Liposomes were repeatedly filtered through a 0.2 um Nuclepore polycarbonate filter to prepare smaller particles. Particle size was verified by dynamic light scattering using Nicomp 370.

Data set [4] concerns MH-S alveolar macrophages. Put plainly: Microvesicle secretion by MH-S alveolar macrophages. The note with it: IL-4 treated MH-S alveolar macrophages, counted using qNano. The data set is classed as cell-based, mouse. The procedure:
MH-S, mouse alveolar macrophages, or primary mouse alveolar macrophages were seeded. After adherence, the media was replaced with 0.22 μm filtered media to remove any contaminating microvesicles. After an overnight incubation, the supernatant was harvested and spun at 5000×g to remove cell debris and apoptotic bodies. The pellet was discarded and the resulting supernatant was filtered through 0.8 μm filter and spun again at 17,000×g. The pelleted microvesicles were then washed with HBSS and then spun again at 17,000×g. For engulfment assays, microvesicles were stained with TAMRA for 20 minutes and then added to BEAS-2B cells for 90 minutes. For flow cytometry, purified particles were stained with CD11c, Siglec F, and Annexin V (BD Biosciences, Cat. No. 550475) and processed on Imagestream™ imaging flow cytometer (Amnis). Microvesicle size distribution was characterized using qNano (IZON Science) with a NP400 membrane and at least 500 particles were counted. Microvesicles were prepared for cryo-electron microscopy using standard methods and imaged on an FEI TF20.

The next data set deals with IGF-1 in BAL fluid. Put plainly: In vivo cytokine administration: IGF-1 in BAL fluid. Conditions: 1 μg recombinant mouse cytokine intranasally for two consecutive days. The procedure:
Mice were administered intranasally with 1 μg of recombinant mouse IL-4, IL-5, or IL-13 (eBiosciences), 1×10^6 apoptotic Jurkat cells, or PBS as control, for two consecutive days. On the third day, BAL fluid was recovered and centrifuged; the supernatant was stored at −80° C. for subsequent cytokine analysis. IL-4, IL-5, IL-6, and CCL-11/Eotaxin-1 in the BAL fluid of mice that were sensitized with HDM (regimen #1) were quantified by a multiplex Luminex performed by the University of Virginia Flow Cytometry Core Facility. Secretion of IGF-1 from J774 cells, peritoneal macrophages, and BAL fluids, as well as TSLP from BAL fluids, were measured by ELISA (R&D Systems).

The test system of a further data set is peritoneal macrophages. The experiment in a line: IGF-1 secretion by peritoneal macrophages (ELISA). Format: cell-based, mouse. Conditions: treated with IL-4. The method, then:
To obtain bone-marrow derived macrophages, femurs were removed from 8 week old mice and flushed with 5 mL of sterile PBS containing 5% FBS. The cell suspension was centrifuged, treated with red blood cell lysis buffer, washed, and then plated onto sterile petri dishes in DMEM containing 10% L929 media, 10% FBS and 1% penicillin/streptomycin/glutamine (PSQ). Media was replenished every 2 to 3 days and differentiated cells were used at day 6 post-harvest. Resident peritoneal macrophages were obtained by flushing the peritoneal cavity of mice with 10 mL of cold PBS containing 5% FBS. Collected cells were spun down, resuspended in X-VIVO 10 (Lonza) and plated at a concentration of 3×10^5 cells per well in a 24 well plate for IGF-1 secretion assays, and 5×10^5 per well in a 24 well plate for engulfment assays. Floating cells were washed the next day and remaining peritoneal macrophages were used 2 days after isolation. […]
IL-4, IL-5, IL-6, and CCL-11/Eotaxin-1 in the BAL fluid of mice that were sensitized with HDM (regimen #1) were quantified by a multiplex Luminex performed by the University of Virginia Flow Cytometry Core Facility. Secretion of IGF-1 from J774 cells, peritoneal macrophages, and BAL fluids, as well as TSLP from BAL fluids, were measured by ELISA (R&D Systems).
Background: An ELISA detects its analyte on a solid surface through an enzyme-linked reagent.

For the compound “insulin: shares structural similarity with IGF-1, lower affinity for IGF-1R”, the “corpse uptake by IC-21 cells” value in the data set on IC-21 cells is “engulf apoptotic cells at normal capacity”. Besides, the “apoptotic cell uptake by LR73 cells” value with LR73 cells [1] is recorded as “could also reduce apoptotic cell uptake”.
Take “PDGF-AA: growth factor of the tested panel of soluble mediators”: the “early downstream signaling events (Erk1/2 phosphorylation)” value (“early downstream signaling events” for short) in data set [2] is “elicited early downstream signaling events”. For the same compound, in the data set on LR73 cells [1], the “apoptotic cell uptake (engulfment) by LR73 cells” value was “did not alter engulfment”.
Take VEGF: in data set [2], the “early downstream signaling events” value is given as “elicited early downstream signaling events”. Moreover, the “uptake of PtdSer containing liposomes by LR73 cells” value with LR73 cells [3] was “not seen”. Also, in the data set on LR73 cells [1], the “apoptotic cell uptake (engulfment) by LR73 cells” value is “did not alter engulfment”.
On to `Nc1ncnc2c1c(-c1cccc(OCc3ccccc3)c1)cn2C1CC(CN2CCC2)C1` (centres unmarked) [NVP-AEW541, reference compound], for which the “phosphorylation of IGF-1R and Erk” value in data set [2] was “concomitant decrease in phosphorylation of IGF-1R and Erk”. Moreover, in the data set on LR73 cells [1], the “reversal of IGF-1 mediated engulfment suppression in LR73 cells” value (from here on “reversal … in LR73 cells”) is “rescued the engulfment capacity of LR73 cells”.
Turning to fibroblast growth factor 2 [FGF2], the “early downstream signaling events” value in data set [2] is “elicited early downstream signaling events”. The “apoptotic cell uptake (engulfment) by LR73 cells” value in the data set on LR73 cells [1] is “did not alter engulfment”.
On to insulin-like growth factor II [IGF-II], for which, in the data set on LR73 cells [1], the “apoptotic cell uptake by LR73 cells” value is “could also reduce apoptotic cell uptake”.
In the case of `C[C@]1(O)C[C@@H](c2nc(-c3ccc4ccc(-c5ccccc5)nc4c3)c3c(N)nccn32)C1` [OSI-906, reference compound], the “phosphorylation of IGF-1R and Erk” value in data set [2] is “concomitant decrease in phosphorylation of IGF-1R and Erk”. Besides, the “effect on IGF-1 induced increase in liposome uptake” value (shortened to “effect on IGF-1 induced increase”) with LR73 cells [3] was “reduced the increased liposome uptake”. Besides, the “reversal … in LR73 cells” value in the data set with LR73 cells [1] is recorded as “rescued the engulfment capacity of LR73 cells”.
In the case of “IL-4: cytokine; recombinant mouse IL-4 (eBiosciences)”, the “microvesicles secretion by macrophages” value in data set [4] was “increased microvesicles secretion”. The “IGF-1 in bronchoalveolar lavage (BAL) fluid” value in the data set with IGF-1 in BAL fluid is reported as “increased level of IGF-1”. In addition, the “IGF-1 secretion by peritoneal macrophages” value in the data set with peritoneal macrophages is listed as “confirmed IGF-1 secretion”.
Take “IGFBP3: IGF binding protein that stabilizes and sequesters IGF-1 (Sigma-Aldrich)”: the “reversal of suppression by macrophage produced IGF-1” value with LR73 cells [1] (J774 supernatant incubated with IGFBP3, LR73 cells) is on record as “reversed by IGFBP3 addition”. For the same compound, in the data set with LR73 cells [1], the “reversal … in LR73 cells” value is given as “restored the phagocytic capability of LR73 cells”. Also, in the data set with LR73 cells [1] (supernatant of unstimulated J774 cells plus IGFBP3), the “basal phagocytosis by LR73 cells” value is recorded as “increases the basal phagocytosis”.
Take `Cc1[nH]c2ccccc2c1CCNC(=O)c1ccccc1F` [CK-666]: the “effect on IGF-1 induced increase” value in the data set on LR73 cells [3] was “minimal effect”.
“EGF: growth factor of the tested panel of soluble mediators (NSDSECPLSHDGYCLHDGVCMYIEALDKYACNCVVGYIGERCQYRDLKWWELR; Epidermal growth factor; UniProt P01133 971-1023, looked up)”: the “early downstream signaling events” value in data set [2] is on record as “elicited early downstream signaling events”. Also, the “uptake of PtdSer containing liposomes by LR73 cells” value in the data set on LR73 cells [3] was “not seen”. Moreover, the “apoptotic cell uptake (engulfment) by LR73 cells” value in the data set with LR73 cells [1] was “did not alter engulfment”.
With `CCn1c(-c2nonc2N)nc2cnc(Oc3cccc(NC(=O)c4ccc(OCCN5CCOCC5)cc4)c3)cc21` [GSK269962, reference compound], in the data set on LR73 cells [1], the “reversal … in LR73 cells” value was “does not appear to rescue IGF-1 induced engulfment suppression” and the “basal phagocytosis of apoptotic cells with inhibitor alone” value is reported as “basally increases phagocytosis of apoptotic cells”.
Regarding `C/C1=C/C(=O)O[C@@H]2C[C@@H](CC[C@H](C)/C=C\C=C\CC1)O[C@@](O)([C@@H]1CSC(=O)N1)C2` [Latrunculin A], in the data set on LR73 cells [3], the “effect on IGF-1 induced increase” value was “reversed IGF-1 mediated enhancement of liposome uptake” and the “basal uptake of liposomes” value was “without affecting the basal uptake of liposomes”.
As to `C[C@@H](N)[C@H]1CC[C@H](C(=O)Nc2ccncc2)CC1` [Y27632, reference compound], in the data set on LR73 cells [1], the “reversal … in LR73 cells” value is listed as “does not appear to rescue IGF-1 induced engulfment suppression” and the “basal phagocytosis of apoptotic cells with inhibitor alone” value is given as “basally increases phagocytosis of apoptotic cells”.
Take `C=C1[C@@H](C)[C@H]2[C@H](Cc3ccccc3)NC(=O)[C@]23[C@H](OC(C)=O)/C=C/[C@@](C)(O)C(=O)[C@@H](C)C/C=C/[C@H]3[C@@H]1O` [Cytochalasin D]: in the data set with LR73 cells [3], the “effect on IGF-1 induced increase” value is given as “blocked the IGF-1 induced increase in liposome uptake” and the “basal uptake of liposomes” value is recorded as “did not affect the basal uptake of liposomes”. Besides, in the data set on LR73 cells [3] (for the duration of the assay), the “morphology of treated LR73 cells” value is recorded as “appeared morphologically normal”. In addition, the “basal phagocytosis of apoptotic cells with inhibitor alone” value with LR73 cells [1] is on record as “potently inhibited phagocytosis of apoptotic cells”.
